Measured values as given in US6911469B2, “Sulfonamide compounds and pharmaceutical use thereof” (Fujisawa Pharmaceutical Co., Ltd., priority 1997, dated 2005).

How the values were obtained:
female db/db mice = assay: blood sugar level depressing activity in dd/db mice; format: in vivo; conditions: dose 10 mg/kg, drug mixed with powder diet, given for 14 days, difference between db/db control group and +/+ mice taken as 100%
Description: (blood sugar level depressing activity in dd/db mice)
Female C57BL/KsJ-dbm db+/db+, C57BL/KsJ-dbm +m/+m (Jackson Laboratory) mice (5 weeks old) were purchased and subjected to the test after 2-3 weeks of acclimating period.
The test drug was mixed with a powder diet (CE-2, Clea Japan, Inc.) in a mortar. In the case of administration in 100 mg/kg, the mixing proportion of the test drug to the diet was 0.1%, in the case of 30 mg/kg, the proportion was 0.03% and in the case of 10 mg/kg, the proportion was 0.01%. The diet was changed twice a week. The amount of the diet given and the amount left were recorded and the diet intake was calculated by determining the difference.
The female db/db mice were grouped according to body weight, blood sugar level and triglceride concentration in blood. […] The blood sugar value, triglyceride concentration in plasma and insulin concentration in plasma were measured at day 0 and day 14, and blood sugar value and triglyceride concentration in blood were measured at day 7. Body weight was measured at day 0, day 7 and day 14. […]
Blood sugar value was measured using 10-15 μl of plasma and in accord with glucose oxidase method glucose CII-test Waco, Waco Pure Chemicals Co., Ltd.). […] The insulin concentration in plasma was measured using 20 μl of plasma (preservable at −20° C.) and in accord with an antibody method (Phadesef Insulin RIA kit, Kabi Pharmacia). […]

| Compound | Blood sugar decrease (%) (female db/db mice) | melting point [°C] |
| --- | --- | --- |
| CCCCCS(=O)(=O)NC(=O)c1ccc2oc(C)c(Cc3ccc(Cl)cc3Cl)c2c1 [Compound A, 3-(2,4-Dichlorobenzyl)-2-methyl-5-(1-n-pentanesulfonylcarbamoyl)-benzo[b]furan] | 71 |  |
| CCCCCS(=O)(=O)NC(=O)c1ccc2sc(C)c(Cc3ccc(Cl)cc3Cl)c2c1 [Example 37, 3-(2,4-dichlorobenzyl)-2-methyl-5-(1-n-pentanesulfonylcarbamoyl)benzo[b]thiophene] |  | 158.5 to 159.3 |
| CCCCS(=O)(=O)NC(=O)c1ccc2nc(C)n(Cc3ccc(Br)cc3Cl)c2n1 [Example 12-2, 3-(4-bromo-2-chlorobenzyl)-5-(n-butanesulfonylcarbamoyl)-2-methyl-3H-imidazo[4,5-b]pyridine] |  | 165 to 166 |
| CSc1ccc(Cn2c(C)nc3ccc(C(=O)NS(=O)(=O)/C=C/c4ccccc4)nc32)c(Cl)c1 [Example 148, 3-(2-chloro-4-(methylthio)benzyl)-2-methyl-5-(E)-[(2-phenylethenyl)sulfonylcarbamoyl]-3H-imidazo[4,5-b]pyridine] |  | 175 to 176 |
| Cc1nc2ccc(C(=O)NS(=O)(=O)c3ccccc3)nc2n1Cc1ccc(CC(C)C)cc1Cl [Example 74, 5-(benzenesulfonylcarbamoyl)-3-(2-chloro-4-isobutylbenzyl)-2-methyl-3H-imidazo[4,5-b]pyridine] |  | 183 to 184 |
| Cc1nc2ccc(C(=O)NS(=O)(=O)c3ccc(Br)s3)nc2n1Cc1ccc(Cl)cc1Cl [Example 65-5, 5-((5-bromothiophen-2-yl)sulfonylcarbamoyl)-3-(2,4-dichlorobenzyl)-2-methyl-3H-imidazo[4,5-b]pyridine] |  | 168 to 169 |
| CCCCCS(=O)(=O)NC(=O)c1ccc2nc(C)n(Cc3ccc(C(F)(F)F)cc3Cl)c2n1 [Example 102-2, 3-[2-chloro-4-(trifluoromethyl)-benzyl]-2-methyl-5-(1-pentanesulfonylcarbamoyl)-3H-imidazo[4,5-b]pyridine] |  | 154 to 155 |
| Cc1nc2ccc(C(=O)NS(=O)(=O)c3ccccc3)nc2n1Cc1ccc(-c2cccs2)cc1Cl [Example 68, 5-(benzenesulfonylcarbamoyl)-3-[2-chloro-4-(thiophen-2-yl)benzyl]-2-methyl-3H-imidazo[4,5-b]pyridine] |  | 225 to 226 |
